Assay results taken from patent publication US7659242B2, “Composition comprising protein material and compounds comprising non-oxidizable fatty acid entities” (Thia Medica AS, priority 2004, dated 2010).

Key:
[1] = degradation time in vivo of ω-oxidation blocked analogue
Description: ω-oxidation is believed to be the main pathway for degradation of the fatty acid entities as described with a block in the X position. Experiments were thus performed where R′ was changed to block ω-oxidation, by introducing a triple bond at the methyl end of the fatty acid analogue. […] This is important for the use of the fatty acid entities in pharmaceutical preparation, as it may potentiate the effects of the β-oxidizable fatty acid entities by further slowing down their breakdown.

[2] = system: mitochondrial β-oxidation in the liver; assay: activity of mitochondrial β-oxidation in the liver of fatty acid analogues; format: biochemical
Description: Although all fatty acid anagoges with an odd positioning of the β-oxidation blocker X away from the carboxylic end block β-oxidation, the extent of their biological effect may be variable. This is due to the difference in biological degradation time of the various compounds. The inventors have done experiments to show the effect of moving X further from the carboxylic fatty acid end. In these experiments the activity (in nmol/min/mg/protein) of mitochondrial β-oxidation in the liver of fatty acid analogues was measured with sulphur in the 3, 5 and 7 positions relative to the carboxyl end. The activities were 0.81 for sulphur in the 3rd position, 0.61 for sulphur in the 5th position, 0.58 for sulphur in the 7th position, and 0.47 for palmitic acid, the non β-oxidation blocking control. […] However, as the decline is great for going from the 3rd to 5th position, but small going from the 5th to 7th position, it is reasonable to assume that this decline will continue to be less as one moves out the chain and thus that it will be very far out indeed before no effect (compared to the control) is seen at all.

Row | Compound | degradation time in vivo [1] | activity of mitochondrial β-oxidation in the liver [2] [nmol/min/mg/protein]
1 | CC#CCCCCCCCCCCCSCC [3-thia-15-heptadecyn] | substantially increased degradation time in vivo | 
2 | CCCCCCCCCCCCCCCC(=O)O [palmitic acid] |  | 0.47
